#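 Test compounds were applied to cells in 96-well plates for 48 hours at 5 doses. GI50: concentration for 50% inhibition of growth.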 The source made the active and inactive calls. No stated cut-off is given here; in the data, active = GI50 up to about 1.1 µM and inactive = higher.
# Tests used:
# Assay in all cases: NCI tumour cell line growth inhibition, 48 h
# SW-620 = system: SW-620
# HOP-92 = system: HOP-92
# RPMI-8226 = system: RPMI-8226
# MOLT-4 = system: MOLT-4
# M14 = system: M14
# OVCAR-8 = system: OVCAR-8
# OVCAR-3 = system: OVCAR-3
# OVCAR-4 = system: OVCAR-4
# ACHN = system: ACHN
# DU-145 = system: DU-145
# SK-MEL-2 = system: SK-MEL-2
# U-251 = system: U-251
# SN12C = system: SN12C
# NCI-H522 = system: NCI-H522
# HT-29 = system: HT-29
# MCF7 = system: MCF7
# SNB-75 = system: SNB-75
# LOX IMVI = system: LOX IMVI
# UACC-62 = system: UACC-62
# SK-OV-3 = system: SK-OV-3
Structure (SMILES),GI50 (SW-620),GI50 (HOP-92),GI50 (RPMI-8226),GI50 (MOLT-4),GI50 (M14),GI50 (OVCAR-8),GI50 (OVCAR-3),GI50 (OVCAR-4),GI50 (ACHN),GI50 (DU-145),GI50 (SK-MEL-2),GI50 (U-251),GI50 (SN12C),GI50 (NCI-H522),GI50 (HT-29),GI50 (MCF7),GI50 (SNB-75),GI50 (LOX IMVI),GI50 (UACC-62),GI50 (SK-OV-3)
COc1cccc([C@H]2C/C(=N\NC(=O)C(=O)N[C@@H](C)c3ccccc3)c3ccccc3N2)c1,0.0339 µM (active),7.5 µM (inactive),< 0.01 µM (active),> 10 µM (inactive),0.0249 µM (active),6.41 µM (inactive),0.0181 µM (active),7.48 µM (inactive),0.0381 µM (active),0.0258 µM (active),3.69 µM (inactive),7.67 µM (inactive),0.0184 µM (active),9.42 µM (inactive),> 10 µM (inactive),9.38 µM (inactive),8.53 µM (inactive),0.0721 µM (active),< 0.01 µM (active),0.0491 µM (active)
O[C@H]1[C@H](O)[C@@H](Cn2nnc(-c3ccccc3)c2-c2ccccc2)OCO[C@@H]1Cn1nnc(-c2ccccc2)c1-c1ccccc1,5.22 µM (inactive),2.83 µM (inactive),2.32 µM (inactive),2.7 µM (inactive),3.37 µM (inactive),4.01 µM (inactive),2.96 µM (inactive),10.5 µM (inactive),3.63 µM (inactive),7.4 µM (inactive),3.15 µM (inactive),3.73 µM (inactive),2.36 µM (inactive),5.31 µM (inactive),2.26 µM (inactive),3.24 µM (inactive),7.82 µM (inactive),2.32 µM (inactive),2.99 µM (inactive),3.38 µM (inactive)

# Source: ChEMBL document CHEMBL1201862, “PubChem BioAssay data set” (2004)
